“And” between values parts separate entries of the source, which are not always exact repeats. Equal entries are not always repeated.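 Tested at 5 concentrations; 48 h exposure; 96-well plates; endpoints linearly interpolated, else capped at highest concentration. GI50 = concentration required for 50% inhibition of growth. TGI is the concentration that stops growth completely.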
Legend:
Assay in all cases: growth of human tumour cells (NCI), 48 h
KM12 colon = tested on: KM12 colon
HOP-92 NSCLC = tested on: HOP-92 NSCLC
786-0 renal = tested on: 786-0 renal
COLO 205 colon = tested on: COLO 205 colon
MALME-3M melanoma = tested on: MALME-3M melanoma
TK-10 renal = tested on: TK-10 renal
RXF 393 renal = tested on: RXF 393 renal
BT-549 breast = tested on: BT-549 breast
RPMI-8226 leukemia = tested on: RPMI-8226 leukemia

Compound	TGI (KM12 colon)	TGI (HOP-92 NSCLC)	TGI (786-0 renal)	TGI (COLO 205 colon)	TGI (MALME-3M melanoma)	TGI (TK-10 renal)	TGI (RXF 393 renal)	TGI (BT-549 breast)	TGI (RPMI-8226 leukemia)	GI50 (KM12 colon)	GI50 (HOP-92 NSCLC)	GI50 (COLO 205 colon)
c1csc(-c2cc(-c3ccsc3)c(-c3cccs3)s2)c1	> 100 µM	> 100 µM	> 100 µM	82.5 µM	> 100 µM	> 100 µM	> 100 µM	> 100 µM	–	–	–	–
O=C1C=CC(=O)c2c(O)c(Nc3ccc(OC(F)(F)F)cc3)c(Cl)c(O)c21	2.95 µM	–	1.26 µM	2.84 µM	2.47 µM	2.81 µM	1.39 µM	3.12 µM	0.285 µM	–	–	–
CCOC(=O)c1c(SCC#N)n(-c2ccccc2)c(=S)n(-c2ccccc2)c1=O	> 100 µM	93.3 µM	> 100 µM	> 100 µM	> 100 µM	> 100 µM	–	> 100 µM	> 100 µM	–	–	–
CNC(=O)OC(C)CN1c2ccccc2Sc2ccccc21 (configuration not stated)	> 100 µM	> 100 µM	> 100 µM	> 100 µM	> 100 µM	> 100 µM	> 100 µM	> 100 µM	–	–	–	–
Cc1ccc(-c2n[nH]c(CC#N)n2)cc1	> 100 µM	> 100 µM	> 100 µM	> 100 µM	> 100 µM	> 100 µM	> 100 µM	> 100 µM	–	–	–	–
Cn1c2nc(=Nc3ccc(Cl)cc3)n3ccc4ccccc4c3c2c(=O)n1-c1ccccc1	> 100 µM	–	> 100 µM	> 100 µM	> 100 µM	> 100 µM	> 100 µM	> 100 µM	> 100 µM	–	–	–
CCOC(=O)C1C(=O)CC(C)(O)C(C(=O)OCC)C1c1ccc(O)c(OC)c1 (configuration not stated)	> 100 µM	> 100 µM	> 100 µM	> 100 µM	> 100 µM	> 100 µM	> 100 µM	> 100 µM	–	–	–	–
O=C1c2ccccc2C(=O)c2[nH]c(=O)c(/C=N/Nc3ccc([N+](=O)[O-])cc3)nc21	> 100 µM	38 µM	> 62.2 µM	75.6 µM	2.78 µM	51.2 µM	33.4 µM	20.4 µM	> 61.2 µM	–	–	–
O=c1[nH]ncc2[nH]c3c(c12)CCCc1ccccc1-3	> 100 µM	> 100 µM	> 100 µM	53.2 µM	> 100 µM	> 100 µM	41.9 µM	> 100 µM	84.9 µM	–	–	–
N#C/C(=C\N1CCNC1=S)C(=O)c1ccc2ccccc2c1	> 100 µM	> 100 µM	> 100 µM	> 100 µM	–	> 100 µM	> 100 µM	> 100 µM	> 100 µM	–	–	–
O=C(CN1CCOCC1)NC1=Nc2ncccc2C(=O)NN1	> 10 µM	> 10 µM	> 10 µM	–	> 10 µM	> 10 µM	> 10 µM	> 10 µM	> 10 µM	–	–	–
CC1(C)C2CCC1(C)C(NC(=O)CCN1CCOCC1)C2 (configuration not stated)	> 100 µM	> 100 µM	> 100 µM	> 100 µM	> 100 µM	> 100 µM	> 100 µM	> 100 µM	–	–	–	–
Oc1ccc2ccccc2c1N=Nc1ccc(N=Nc2ccccc2)cc1	> 100 µM	–	> 100 µM	> 100 µM	> 100 µM	> 100 µM	> 100 µM	> 100 µM	> 100 µM	–	–	–
OC(CCN1CCN(CCOC(c2ccc(F)cc2)c2ccc(F)cc2)CC1)c1ccccc1 (configuration not stated)	44 µM	23.8 µM	25.6 µM	18.2 µM	26.8 µM	29.2 µM	24.1 µM	27.1 µM	43 µM	–	–	–
COC(=O)[C@@H]1C[C@H]2[C@H](c3ccccc3Br)[C@@H](OC(C)=O)[C@@H](OCc3ccccc3)ON2O1	> 100 µM	–	> 100 µM	> 100 µM	–	> 100 µM	> 100 µM	> 100 µM	–	–	–	–
COc1cccc2c1[C@H](OC)[C@]13O[C@@]1(C2=O)[C@H](O)[C@H](C)[C@@](O)(C(=O)[C@@H]1O[C@H]1C)[C@@H]3O	> 36.5 µM	0.723 µM	2.52 µM	0.415 µM	0.523 µM	10.7 µM	1.1 µM	1.28 µM	0.411 µM	–	–	–
Nc1nonc1-c1noc(-c2nonc2N)[n+]1[O-]	> 100 µM	> 100 µM	> 100 µM	–	42.5 µM	> 100 µM	51.1 µM	> 100 µM	> 100 µM	–	–	–
COc1ccc(/C=C/c2cc(=O)cc(/C=C/c3ccc(OC)c(O)c3)o2)cc1O	4.26 µM	13.5 µM	> 34 µM	> 61.1 µM	–	16.9 µM	2.96 µM	10.3 µM	1.99 µM	–	–	–
C[C@@H]1O[C@@H]2OCC[C@@H]2C2=C1C(=O)c1ccccc1C2=O	30.7 µM	18.9 µM	29.1 µM	51.3 µM	4.95 µM	34.1 µM	13.3 µM	–	30.9 µM	–	–	–
O=C(Nc1ccccc1)N1CC(CN2CCN(c3ccccc3)CC2)OC1=O (configuration not stated)	> 100 µM	> 100 µM	> 100 µM	> 100 µM	> 100 µM	> 100 µM	> 100 µM	> 100 µM	> 100 µM	–	–	–
c1ccc(N=C2SC(c3ccccc3)CN2C23CC4CC(CC(C4)C2)C3)cc1 (configuration not stated)	> 100 µM	> 100 µM	> 100 µM	> 100 µM	> 100 µM	> 100 µM	> 100 µM	> 100 µM	> 100 µM	–	–	–
COC(=O)c1ccc(/C=N/c2cc(C)nn2-c2ccccc2)cc1	> 100 µM	> 100 µM	> 100 µM	43 µM	> 100 µM	6.18 µM	> 100 µM	> 100 µM	> 100 µM	–	–	–
C1CSCCSS[C@@H]2CCCCC2SC1 (some centres not stated)	> 100 µM	97.8 µM	> 100 µM	> 100 µM	–	> 100 µM	–	> 100 µM	–	–	–	–
CCCCCCCCCCCCCC/C(=C/OCC[N+](C)(C)C)OC(C)=O (tested in a mixture with another compound)	–	3.75 µM	2.34 µM	5.08 µM	21.2 µM	3.76 µM	2.45 µM	5.85 µM	4.16 µM	–	–	–
CC(C)Nc1n[nH]c(=O)n1C(C)C	> 100 µM	> 100 µM	> 100 µM	> 100 µM	–	> 100 µM	–	> 100 µM	> 100 µM	–	–	–

Compound	TGI (KM12 colon)	TGI (HOP-92 NSCLC)	TGI (786-0 renal)	TGI (COLO 205 colon)	TGI (MALME-3M melanoma)	TGI (TK-10 renal)	TGI (RXF 393 renal)	TGI (BT-549 breast)	TGI (RPMI-8226 leukemia)	GI50 (KM12 colon)	GI50 (HOP-92 NSCLC)	GI50 (COLO 205 colon)
N=c1nc(N)nc(N)n1-c1ccc(S(N)(=O)=O)cc1	> 100 µM	> 100 µM	> 100 µM	–	> 100 µM	> 100 µM	> 100 µM	> 100 µM	–	–	–	–
COC(=O)c1ccccc1C1CN=NC12Cc1c(C)c3c(c(C)c1C2=O)CCC3 (configuration not stated)	> 100 µM	> 100 µM	> 100 µM	> 100 µM	> 100 µM	90.8 µM	> 100 µM	> 100 µM	–	–	–	–
CNC(=S)N/N=C(\C)c1ccc(OC)cc1O	> 100 µM	> 100 µM	> 100 µM	> 100 µM	> 100 µM	–	> 100 µM	> 100 µM	> 100 µM	–	–	–
CCCCCCCCCCCCCCCCCCNc1ccn(C2OC(COP(=O)(O)OCCCCCCCCCCCCCCCC)C(O)C2O)c(=O)n1 (configuration not stated)	> 100 µM	> 100 µM	> 100 µM	> 100 µM	–	> 100 µM	> 100 µM	–	> 100 µM	–	–	–
COC(=O)C1=C(C(=O)OC)C2(/N=C(\Nc3ccccc3)c3ccccc3)N(c3ccc(OC)cc3)CC(c3ccccc3)N2O1 (configuration not stated)	> 100 µM	> 100 µM	> 100 µM	> 100 µM	> 100 µM	> 100 µM	> 100 µM	> 100 µM	–	–	–	–
O=c1cc2oc3ccc4ccccc4c3cc-2c(=O)[nH]1	42.7 µM	–	26.7 µM	30 µM	30.3 µM	–	–	11.2 µM	> 100 µM	–	–	–
Cc1nnc2sc(-c3ccc(N)cc3)nn12	> 100 µM	> 100 µM	> 100 µM	> 100 µM	> 100 µM	> 100 µM	> 100 µM	–	> 100 µM	–	–	–
S=c1scc(-c2ccc(Cl)cc2)n1OC1CCCC1	> 100 µM	> 100 µM	> 100 µM	26.5 µM	> 100 µM	> 100 µM	> 100 µM	94.7 µM	–	–	–	–
CNNC1=NS(=O)(=O)c2cc(C(=O)OC)c(Cl)cc2S1	> 10 µM	–	> 10 µM	> 10 µM	> 10 µM	> 10 µM	> 10 µM	> 10 µM	> 10 µM	–	–	–
Cc1nnc2nc(-c3ccc(Cl)cc3Cl)cc(-c3ccc(Cl)cc3)n12	> 100 µM	37.7 µM	> 100 µM	49.6 µM	> 100 µM	> 100 µM	–	> 100 µM	> 100 µM	–	–	–
Cc1ccc2c(c1)C(=O)C1(C2)Cc2ccc(C)cc2C1=O	–	> 100 µM	> 100 µM	–	> 100 µM	> 100 µM	> 100 µM	–	> 100 µM	–	–	–
N#CC1(C#N)C(c2ccccc2)NC23CCCCC2C1(C#N)C(=O)N3 (configuration not stated)	> 100 µM	> 100 µM	> 100 µM	> 100 µM	> 100 µM	–	> 100 µM	> 100 µM	> 100 µM	–	–	–
CN(C)c1ncc(-c2c[nH]c3ccccc23)nc1-c1c[nH]c2ccccc12	5.3 µM	8.33 µM	4.07 µM	5.2 µM	–	22.1 µM	4.11 µM	49.1 µM	> 100 µM	–	–	–
CC(=O)OCC1OC(Sc2nc(-c3ccc(C)cc3)c(C#N)c(=O)n2C2OC(COC(C)=O)C(OC(C)=O)C(OC(C)=O)C2OC(C)=O)C(OC(C)=O)C(OC(C)=O)C1OC(C)=O (configuration not stated)	> 100 µM	> 100 µM	> 100 µM	> 100 µM	–	> 100 µM	> 100 µM	> 100 µM	> 100 µM	> 100 µM and 38.7 µM	> 100 µM and 41.7 µM	> 100 µM and 10.3 µM
O=C(/C=C/c1ccc(O)c(O)c1)Oc1ccccc1	40.4 µM	47.6 µM	48.1 µM	29.2 µM	–	> 100 µM	40.1 µM	53.6 µM	45 µM	–	–	–
COc1cccc(N2CCc3c(C)c(C#N)c4nc5ccccc5n4c32)c1	–	> 100 µM	> 100 µM	> 100 µM	> 100 µM	> 100 µM	> 100 µM	> 100 µM	–	–	–	–
N[C@H]1CCc2c1nc1c(c2-c2ccccc2)CC[C@@H]1N	> 100 µM	> 100 µM	28.6 µM	44.2 µM	31.9 µM	> 100 µM	–	28.1 µM	> 100 µM	–	–	–
COc1cc(C(CN)N(C)C)cc(OC)c1OC (configuration not stated)	> 100 µM	> 100 µM	> 100 µM	> 100 µM	> 100 µM	> 100 µM	> 100 µM	> 100 µM	–	–	–	–
Cn1cc(C=C(C#N)C#N)c(=O)n(C)c1=O	> 100 µM	> 100 µM	> 100 µM	> 100 µM	–	> 100 µM	> 100 µM	> 100 µM	> 100 µM	–	–	–
O=c1oc2ccccc2c(O)c1C(c1ccc([N+](=O)[O-])cc1)c1c(O)c2ccccc2oc1=O	> 100 µM	> 100 µM	> 100 µM	> 100 µM	> 100 µM	> 100 µM	–	> 100 µM	–	–	–	–
COC(=O)C1=C(O)C(C(=O)OC)[C@@]2(O)[C@@H](C(=O)OC)C(c3ccc(OC(=O)/C(=C/c4ccccc4)c4ccccc4)cc3)C[C@@H]1[C@@H]2C(=O)OC (some centres not stated)	> 100 µM	> 100 µM	> 100 µM	> 100 µM	> 100 µM	51.4 µM	63.1 µM	> 100 µM	–	–	–	–
S=C(NNC1=NCCCCN1)Nc1ccccc1	> 100 µM	–	> 100 µM	> 100 µM	> 100 µM	–	–	> 100 µM	> 100 µM	–	–	–
C=C(Cl)C(Br)(CCl)CCC(Cl)C(C)C (configuration not stated) (tested in a mixture with another compound)	3.55 µM	3.46 µM	2.74 µM	5 µM	7.07 µM	4.05 µM	3.93 µM	3.19 µM	–	–	–	–
CCN(CC)CC1CCCCN1CC(=O)N1c2ccc(Br)cc2C(=O)Nc2cccnc21 (configuration not stated)	> 100 µM	> 100 µM	> 100 µM	> 100 µM	> 100 µM	> 100 µM	> 100 µM	–	> 100 µM	–	–	–

From PubChem BioAssay (NCI)
